The values below are quoted from earlier work in patent US20080317845A1, “Duloxetine Formulation” (priority 2007, published 2008).

Where a name gives a salt, the structure may show the parent alone.

With `CNCC[C@H](Oc1cccc2ccccc12)c1cccs1` [duloxetine, (+)-(S)-N-methyl-y-(1-naphthyloxy)-2-thiophenepropylamine hydrochloride], the “stability in acidic media” value is “unstable”.
